Measured values: publication PMC12040169 (PLOS Biology, 2025)

Assay: in vitro
Settings: human, hela cells, % viability

Row | SMILES | viability at 28.5 h, 10 µM [%]
1 | Cc1cc(=O)n(CC(=O)Nc2ccc3c(c2)OCO3)cn1 [CBK287835] | 109
2 | COc1ccc(C(=O)Nc2cc(C)nn2-c2nc3ccccc3s2)cc1 [CBK287841] | 89.8
3 | O=C(Cn1cnc2ccccc2c1=O)NCCc1ccsc1 [CBK287844] | 92.6
4 | CCn1nc(-c2ccc(Cl)cc2)c2c(=O)n(C)c(=O)[nH]c21 [CBK287845] | 108
5 | COc1ccc(C2CC(c3ccc(Cl)cc3)Nc3ncnn32)c(OC)c1 (stereo not shown) [CBK287848] | 98.7
6 | CCCNC(=O)c1sc(Nc2ccc(Cl)cn2)nc1C [CBK287850] | 98.4
7 | Cn1c(=O)[nH]c2c(nc(-c3ccccc3)n2C)c1=O [CBK287855] | 78.2
8 | Cc1ccc(C(=O)Nc2nnn(C)n2)c(Cl)c1 [CBK287856] | 97.4
9 | c1ccc(-c2nc3cnccn3c2Nc2ccc3c(c2)OCCO3)cc1 [CBK287857] | 94.4
10 | O=c1c2c(-c3ccccc3)ccnc2[nH]n1-c1ccccc1 [CBK287858] | 97
11 | O=C1CC(c2ccco2)Cc2c1cnn2-c1ccccc1 (stereo not shown) [CBK287860] | 95.8
12 | Cc1cc(C)nc(NC(=N)NC2Cc3ccccc3C2)n1 [CBK287863] | 43.4
13 | CC(C)Cn1cnc2c(c1=N)C(c1ccccc1)c1ccc(O)cc1O2 (stereo not shown) [CBK287864] | 101
14 | c1cc2c(cc1-c1nn3cnnc3s1)OCCO2 [CBK287866] | 88.1
15 | O=C(O)c1ccc(-c2n[nH]c(=O)c3c2CCCC3)cc1 [CBK287868] | 93.6
16 | c1ccc(-c2cc3nccc(-c4ccccc4)n3n2)cc1 [CBK287871] | 93.7
17 | Cc1nnc(Nc2ccc(F)cc2)c2ccccc12 [CBK287873] | 93.9
18 | COc1ccc(-c2noc(-c3cnccn3)n2)c(OC)c1 [CBK287878] | 83.6
19 | Cc1nn2c(N)ncnc2c1-c1ccc(Cl)cc1 [CBK287880] | 68.8
20 | Nc1nc(-c2ccc(F)cc2)c2c(n1)-c1ccccc1C2=O [CBK287881] | 114
21 | O=C(Nc1cccc2ncccc12)c1ccnc(N2CCOCC2)c1 [CBK287882] | 102
22 | Fc1ccccc1CSc1nc2ccc[nH]c-2n1 [CBK287883] | 91.2
23 | CC1CC(=O)c2cnc(Nc3ccccc3)nc2C1 (stereo not shown) [CBK287884] | 92.4

Row | SMILES | viability at 28.5 h, 10 µM [%]
24 | Cc1nn(-c2ncccn2)c2c1C(C(=O)c1ccccc1)CC(=O)N2 (stereo not shown) [CBK287890] | 93.2
25 | Cc1c(C)c2c(O)n(-c3ccccc3)nc2[nH]c1=O [CBK287891] | 89.3
26 | O=C1Nc2ccccc2C1Cc1cccc(OC(F)F)c1 (stereo not shown) [CBK287892] | 95
27 | Cc1nn(-c2ccccc2)c2c1C(c1cnn(C)c1)SCC(=O)N2 (stereo not shown) [CBK287896] | 114
28 | O=c1cnnc(Nc2cccc(Cl)c2Cl)[nH]1 [CBK287897] | 93
29 | Cc1nc(=O)c(-c2ccccc2)c(C)n1CCc1c[nH]cn1 [CBK287900] | 89.3
30 | O=C(C1CCCN(c2ccc3nncn3n2)C1)N1CCOCC1 (stereo not shown) [CBK287901] | 104
31 | Cn1c(=O)c2[nH]c(-c3ccncc3)nc2n(C)c1=O [CBK287902] | 92.5
32 | O=C(c1ccccc1)N1CCc2[nH]nc(-c3ccccc3)c2C1 [CBK287904] | 92.5
33 | COc1ccc(C2C=C(C)Nc3nc(N)nn32)cc1 (stereo not shown) [CBK287906] | 91.8
34 | Fc1ccc(CCNc2ccc3nncn3n2)cc1 [CBK287909] | 88.2
35 | Cn1ccc2ccc(C(=O)Nc3nccs3)cc21 [CBK287910] | 106
36 | O=C1CC(c2ccccc2)c2c(n3ncnc3[nH]c2=O)N1 (stereo not shown) [CBK287912] | 89.4
37 | O=C(NCc1ccccc1)C1CCCN(c2ncnc3[nH]cnc23)C1 (stereo not shown) [CBK287916] | 91.4
38 | Cc1cc(C)c2c(n1)oc1c(NC(C)C)ncnc12 [CBK287917] | 108
39 | O=C(O)CCC(=O)N1CCC(c2nnc3ccccn23)CC1 [CBK287920] | 104
40 | Oc1cnnc(Nc2ccc(Nc3ccccc3)cc2)n1 [CBK287921] | 101
41 | Cc1cc(Cl)ccc1Nc1nnc(C)c(=O)[nH]1 [CBK287922] | 110
42 | O=C1CC(c2ccccc2)c2c(n3ccsc3nc2=O)N1 (stereo not shown) [CBK287923] | 98.7
43 | CC(C)CC1CC(=O)Nc2c1c(=O)[nH]n2C(C)C (stereo not shown) [CBK287924] | 105
44 | Cc1nn(-c2ccccc2)c(C)c1C1CC(=O)Nc2c1cnn2C(C)C (stereo not shown) [CBK287925] | 104
45 | CC(C)n1ncc2c1NC(=O)CC2c1ccc2c(c1)n(C)c(=O)n2C (stereo not shown) [CBK287926] | 108
46 | O=C1CC(c2cccnc2)c2sc(N3CCOCC3)nc2N1 (stereo not shown) [CBK287927] | 105

Row | SMILES | viability at 28.5 h, 10 µM [%]
47 | Cc1ccc(-c2[nH]ncc2C(=O)c2ccccc2C)c(O)c1 [CBK287929] | 102
48 | NC(=O)c1cccnc1-c1nc2ccccc2s1 [CBK287930] | 80
49 | Cc1cc(NCc2ccccc2)nc2[nH]nc(N)c12 [CBK287931] | 87.7
50 | CCc1cc(-c2n[nH]cc2-c2nc(C)cs2)c(O)cc1OC [CBK287934] | 103
51 | O=C1CSC(c2ccc(F)cc2Cl)c2c[nH]nc2N1 (stereo not shown) [CBK287935] | 91.4
52 | CC(=O)Nc1nc(NC(C)=O)n(-c2ccccc2)n1 [CBK287938] | 86
53 | Cc1nc2c(c(N3CCOCC3)n1)OCC(=O)N2 [CBK287939] | 94.5
54 | Cn1ncc2c1NC(=O)CC2c1c[nH]nc1-c1ccccc1 (stereo not shown) [CBK287941] | 99.5
55 | N#Cc1cnn2c(O)cc(Cc3ccccc3)nc12 [CBK287942] | 110
56 | Cc1cc(-c2nnc3n2N=C(c2ccccc2)CS3)n[nH]1 [CBK287944] | 98.3
57 | Nc1nc2n(n1)C(c1ccccc1)C1=C(CCCC1)N2 (stereo not shown) [CBK287949] | 107
58 | Cn1c2ccccc2c2ncn(CCCO)c(=O)c21 [CBK287951] | 56.9
59 | CCn1cnc2sc(-c3ccccc3)cc2c1=O [CBK287952] | 65.7
60 | CCN1CCN(c2ccc(N3C(=O)N[C@@H](C(C)C)C3=O)cc2)CC1 [CBK287953] | 87.5
61 | CSCC[C@@H]1NC(=O)N(c2ccc(CN3CCOCC3)cc2)C1=O [CBK287954] | 83.2
62 | CN(CCC#N)C(=O)c1cc2cc(Cl)ccc2[nH]1 [CBK287956] | 98
63 | Cc1cccc(-c2n[nH]/c(=N/C(=O)c3ccccc3F)s2)c1 [CBK287957] | 84.5
64 | O=c1nc2n(Cc3ccccc3)c3ccccc3cc-2c(=O)[nH]1 [CBK287958] | 79.8
65 | COc1ccc(O)c(-c2c(-c3ccc(C)cc3)n[nH]c2C)c1 [CBK287961] | 93.1
66 | Cc1cccc(CSc2nc3ncccc3[nH]2)c1 [CBK287963] | 96.9
67 | CCOCCCNc1nc2c(c(=O)[nH]c(=O)n2C)n1CCC(C)C [CBK287968] | 87.7
68 | O=C1NC2(CCCCC2)C(=O)N1c1cccc(Cl)c1 [CBK287969] | 94.3
69 | CN(Cc1ccccc1)C(=O)c1cc(=O)[nH]c2ccccc12 [CBK287971] | 92.8

Same assay, conditions: human, hela cells, % viability, bulk resorufin, single well

Row | SMILES | viability at 28.5 h, 10 µM [%]
70 | CC(=O)c1c(O)n(C2CCCCC2)c(=O)[nH]c1=O [CBK287861] | 91.9
